Laboratory results published in patent US12290526B2 (priority 2018, dated 2025).

How the values were obtained:
[1] = system: gout induced by intra-articular uric acid at 20% in rats; assay: PIFIR model (pain-induced functional impairment, uric acid 20%), analgesic activity after topical administration; format: in vivo, Female Wistar rats; details: for ability to walk and visible adverse effects: doses used (3.2-31.6 mg/Kg topical), observation period of 5 h
From the text: Female Wistar rats [Crl:(WI)BR] were employed with a weight of between 180 and 200 g. All the experimental procedures followed the recommendations of the committee for Research and Ethical Issues of the International Association for the Study of Pain and the Guidelines on Ethical Standards for Investigations of Experiment Pain in Animals. The number of animals for experimentation was kept to a minimum: 6 rats per experimental point. The animals were kept in a room with alternating dark/light cycles.
Twelve hours before the experiments, the fur that covers the rats' major muscle group that covers the femur (4 cm×4 cm) on the outer side of the hind right paw was very carefully clipped with some scissors, leaving the fur cut to a maximum length of 2 mm and taking care not to injure the rats' skin. Food was also removed at this moment, leaving them only free access to water. All the experiments were performed during the light phase, with the animals only being used once.
The analgesic effects are assessed employing the PIFIR model, in other words, the rats were anesthetized in a glass desiccator, saturated with ether vapor. The gout was induced by applying an intra-articular injection (i.a.) of 0.05 ml of uric acid suspended in mineral oil in the right hind member, exactly in the femur-tibia-kneecap joint. A 1 mL glass syringe with a 4-mm-long No. 22 needle is used for the intra-articular injection. Immediately afterwards, an electrode is attached to each hind paw in the middle of the plantar calluses. The rats were left to recover from the anesthesia and placed in a 30-cm-diameter rotary stainless-steel cylinder. The cylinder was turned at 4 r.p.m., forcing the rats to walk for 3 min every half hour, for a total of 5 hours. The variable measured was the contact time of each one of the rats' hind paws in the cylinder. When the electrode makes contact with the cylinder a circuit is closed and the ratio between the contact time of the injured paw in respect of the uninjured one was recorded on a computer.
The temporary courses of each treatment for 5 continuous hours were determined, employing an “n” of 6 rats per treatment. For the purpose of this study, inducing harm in the experimental animals was unavoidable. However, care was taken to avoid causing unnecessary suffering to the animals. At the end of the experimental determinations, the rats were immediately sacrificed.
From the aforementioned experimental model, the results obtained from the analgesic assessment of the combination are expressed as a Functionality Index percentage (FI %). This FI % is the ratio obtained by dividing the contact time of the limb with uric acid by the contact time of the limb against of the same rats, and multiplying the result by 100. The temporary course (TC) curves are built by plotting FI % or Dysfunction against time (h). The analgesic or antinociceptive effect was estimated as the recuperation of FI %. […] All the values plotted in the figures correspond to the mean±error standard for 6 animals.

[2] = cited from earlier work
[3] = cited from earlier work; remark: listed apart in the source
[4] = 31.6 mg/Kg topical administration

Structure (SMILES): O=C(O)COC(=O)Cc1ccccc1Nc1c(Cl)cccc1Cl [aceclofenac, (2-{2-[(2,6-Dichlorophenyl)amino]phenyl}acetoxy) acetic acid]
- maximum effect (Emax), recovery of Functionality Index percentage (FI %) ([1]; 31.6 mg/Kg topical administration, rats, uric acid 20%, 5 h observation, mean ± standard error, n=6): 42.0±6.9%
- analgesic effects in temporary courses (in words) ([1]; 3.16, 5.62, 10.0, 17.78 and 31.62 mg/Kg topical administration): does show analgesic effects
- ability to walk and visible adverse effects [1]: did not affect the ability of the rats to walk during the observation period or cause any visible adverse effect
- time over which the concentration in the top skin layers slowly declines ([2]; after the drug product is removed from the skin): more than 16 hours
- amount of aceclofenac absorbed, of the total dose applied ([2]; applied to the skin): 13%
- amount retained on the top layers of skin, of the dose applied ([2]; applied to the skin): 6 to 9%

Structure (SMILES): C[C@H]1C[C@H]2[C@@H]3CCC4=CC(=O)C=C[C@]4(C)[C@@]3(F)[C@@H](O)C[C@]2(C)[C@@]1(O)C(=O)CO [betamethasone, (11ß,16ß)-9-fluoro-11,17,21-trihydroxy-16-methylpregna-1,4-diene-3,20-dione]
- analgesic effects in temporary course (in words) [1, 4]: modest analgesic effects
- time point of the maximum effect [1, 4]: 3.5 h
- analgesic effects in temporary courses (in words) ([1]; 3.16, 10.0 and 17.8 mg/Kg topical administration): does not generate analgesic effects
- ability to walk and visible adverse effects [1]: did not affect the ability of the rats to walk during the observation period or cause any visible adverse effect
- solubility in water [3]: insoluble in water
